Experimental findings from patent publication US10563270B2, “Solid forms of menaquinols” (Gnosis S.p.A., priority 2015, dated 2020) are described below.

Data set [1] concerns Caco-2 human adenocarcinoma cells. In words: Absorption of reduced or oxidised vitamin K2-(MK7) on cell monolayer of Caco-2 cells in vitro. The class given is in vitro ADME. Conditions: for amount of vitamin internalized by the cell layer (μg of vitamin per g of homogenate): 100 μM vitamin applied to apical compartment, 1% ethanol. The protocol: Caco-2 human adenocarcinoma cells were cultured on a permeable insert inserted in the well of a microplate to form a confluent monolayer with the barrier function between an apical and a basolateral compartment. The perfect integrity of the monolayer was determined by testing for the absence of passage by lucifer yellow, a compound with low permeability. Samples of vitamin K2-(MK7), alternatively in the reduced form (menaquinol) or the oxidized form (menaquinone), were dissolved in ethanol and applied to the apical compartment, the 1% ethanol solution being added to the incubation buffer. The final solution in the incubation well was fixed at 100 μM of vitamin.
At the end of the incubation period the cell layer was removed from the insert and homogenized, and the homogenate was centrifuged. The amount of vitamin present in the supernatant was determined by HPLC. The centrifugation pellet was then resuspended in 1 ml of water, and 1.5 ml of isopropanol and 2.5 ml of hexane were added to the suspension. After stirring, the organic phase formed was analyzed, again by HPLC, for the concentration of vitamin K2 (MK7). The total of the two values was used to calculate the amount of vitamin internalized by the cell layer.

Data set [2] can be described thus: Stability tests of solid forms of reduced vitamin K2-(MK7) (oxidation of the reduced form over storage time). The class given is physicochemical. Conditions: for Reduced (t/t0 %): percentage of the initial value of the reduced form; for percentage of the initial value of the reduced form: packaging Alu/vacuum.

With `CC(C)=CCC/C(C)=C/CC/C(C)=C/CC/C(C)=C/CC/C(C)=C/CC/C(C)=C/CC/C(C)=C/CC1=C(C)C(=O)c2ccccc2C1=O` [Oxidised vitamin, menaquinone 7, reference compound], the “amount of vitamin internalized by the cell layer (μg of vitamin per g of homogenate)” value was 0.6 μg/g hom in data set [1] (mean of wells 1-4); 0.4 μg/g hom in data set [1] (well 1); 0.5 μg/g hom in data set [1] (well 2); 0.6 μg/g hom in data set [1] (well 3); 0.7 μg/g hom in data set [1] (well 4).

Take `CC(C)=CCC/C(C)=C/CC/C(C)=C/CC/C(C)=C/CC/C(C)=C/CC/C(C)=C/CC/C(C)=C/Cc1c(C)c(O)c2ccccc2c1O` [Reduced vitamin, menaquinol 7]: the “amount of vitamin internalized by the cell layer (μg of vitamin per g of homogenate)” value amounted to 1.1 μg/g hom in data set [1] (mean of wells 1-4); 0.8 μg/g hom in data set [1] (well 1); 1.6 μg/g hom in data set [1] (well 2); 1.0 μg/g hom in data set [1] (well 3); 0.8 μg/g hom in data set [1] (well 4). For the same compound, the “uptake by Caco-2 cell layer compared with the oxidized form” value in data set [1] (result in words, 100 μM vitamin) is on record as “slightly but significantly higher uptake”.

Regarding `CC(C)=CCC/C(C)=C/CC/C(C)=C/CC/C(C)=C/CC/C(C)=C/CC/C(C)=C/CC/C(C)=C/Cc1c(C)c(O)c2ccccc2c1O` [menaquinol 7, reference compound], the “Reduced (t/t0 %)” value in data set [2] (Time 0 days) was 100%; in data set [2] (Time 3 days), 4%.

In the case of `CC(C)=CCC/C(C)=C/CC/C(C)=C/CC/C(C)=C/CC/C(C)=C/CC/C(C)=C/CC/C(C)=C/Cc1c(C)c(O)c2ccccc2c1O` [menaquinol 7], the “percentage of the initial value of the reduced form” value is given as 100% in data set [2] (T = 0), 95.4% in data set [2] (T = 1 month), 98.9% in data set [2] (T = 2 months) and 97.9% in data set [2] (T = 3 months). Besides, the “% vitamin oxidised” value was found to be 18.41% in data set [2] (Time 0 days); 23.67% in data set [2] (Time 3 days); 36.69% in data set [2] (Time 6 days); 51.48% in data set [2] (Time 10 days); 52.67% in data set [2] (Time 11 days); 61.09% in data set [2] (Time 12 days). The “% vitamin reduced” value in data set [2] (Time 0 days) was 81.58%; in data set [2] (Time 3 days), 76.24%; in data set [2] (Time 6 days), 63.16%; in data set [2] (Time 10 days), 48.27%; in data set [2] (Time 11 days), 47.04%; in data set [2] (Time 12 days), 38.44%.
